{
  "source": "patent US8952024B2",
  "about": "“Herbicidal pyrimidone derivatives” (E I du Pont de Nemours and Company, priority 2009, dated 2015)",
  "assay_in_all_cases": "Test B pre-/postemergence plant response",
  "type_in_all_cases": "in vivo",
  "details_in_all_cases": "Postemergence",
  "key": {"[1]": {"tested_on": "downy bromegrass (Bromus tectorum)", "how_it_was_run": "(§1)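 Response scores were assigned visually after 13 to 15 days in a greenhouse, comparing treated pots with controls on a 0–100 scale where 100 denotes complete control. Preemergence treatments went onto freshly seeded loam/sand soil; postemergence treatments onto plants 2 to 18 cm tall.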"}, "[2]": {"tested_on": "giant foxtail (Setaria faberii)", "how_it_was_run": "as §1"}, "[3]": {"tested_on": "goosegrass (Eleusine indica)", "how_it_was_run": "as §1"}, "[4]": {"tested_on": "green foxtail (Setaria viridis)", "how_it_was_run": "as §1"}, "[5]": {"tested_on": "johnsongrass (Sorghum halepense)", "how_it_was_run": "as §1"}, "kochia (Kochia scoparia)": {"tested_on": "kochia (Kochia scoparia)", "how_it_was_run": "as §1"}, "[6]": {"tested_on": "lambsquarters (Chenopodium album)", "how_it_was_run": "as §1"}, "[7]": {"tested_on": "large crabgrass (Digitaria sanguinalis)", "how_it_was_run": "as §1"}, "[8]": {"tested_on": "pigweed (Amaranthus retroflexus)", "how_it_was_run": "as §1"}, "[9]": {"tested_on": "velvetleaf (Abutilon theophrasti)", "how_it_was_run": "as §1"}, "[10]": {"tested_on": "wheat (Triticum aestivum)", "how_it_was_run": "as §1"}, "[11]": {"tested_on": "woolly cupgrass (Eriochloa villosa)", "how_it_was_run": "as §1"}, "[12]": {"tested_on": "yellow nutsedge (Cyperus esculentus)", "how_it_was_run": "as §1"}, "[13]": {"details": "31 g ai/ha, 0 to 100 scale (0 no effect, 100 complete control)"}, "[14]": {"details": "62 g ai/ha, scale 0 to 100 (0 no effect, 100 complete control)"}, "[15]": {"details": "125 g ai/ha, scale 0 (no effect) to 100 (complete control), 13 to 15 days"}, "[16]": {"details": "250 g ai/ha, scale 0 to 100 (0 no effect, 100 complete control), 13 to 15 days"}},
  "data": [
    {"smiles": "CCn1c(-c2ccccc2)ncc(C(=O)C2=C(O)C3CCC(C3)C2=O)c1=O", "note": "(stereo not drawn) [Compound 239]", "values": [
      {"measurement": "Plant response rating, Bromegrass, Downy", "setting": "[1]; [13]", "value": 0},
      {"measurement": "Plant response rating, Bromegrass, Downy", "setting": "[1]; [14]", "value": 5},
      {"measurement": "Plant response rating, Bromegrass, Downy", "setting": "[1]; [15]", "value": 5},
      {"measurement": "Plant response rating, Bromegrass, Downy", "setting": "[1]; [16]", "value": 10},
      {"measurement": "Plant response rating, Foxtail, Giant", "setting": "[2]; [13]", "value": 75},
      {"measurement": "Plant response rating, Foxtail, Giant", "setting": "[2]; [14]", "value": 85},
      {"measurement": "Plant response rating, Foxtail, Giant", "setting": "[2]; [15]", "value": 90},
      {"measurement": "Plant response rating, Foxtail, Giant", "setting": "[2]; [16]", "value": 98},
      {"measurement": "Plant response rating, Goosegrass", "setting": "[3]; [13]", "value": 80},
      {"measurement": "Plant response rating, Goosegrass", "setting": "[3]; [14]", "value": 98},
      {"measurement": "Plant response rating, Goosegrass", "setting": "[3]; [15]", "value": 98},
      {"measurement": "Plant response rating, Goosegrass", "setting": "[3]; [16]", "value": 100},
      {"measurement": "Plant response rating, Foxtail, Green", "setting": "[4]; [13]", "value": 80},
      {"measurement": "Plant response rating, Foxtail, Green", "setting": "[4]; [14]", "value": 85},
      {"measurement": "Plant response rating, Foxtail, Green", "setting": "[4]; [15]", "value": 90},
      {"measurement": "Plant response rating, Foxtail, Green", "setting": "[4]; [16]", "value": 95},
      {"measurement": "Plant response rating, Johnsongrass", "setting": "[5]; [13]", "value": 0},
      {"measurement": "Plant response rating, Johnsongrass", "setting": "[5]; [14]", "value": 20},
      {"measurement": "Plant response rating, Johnsongrass", "setting": "[5]; [15]", "value": 60},
      {"measurement": "Plant response rating, Kochia", "setting": "kochia (Kochia scoparia); [13]", "value": 90},
      {"measurement": "Plant response rating, Kochia", "setting": "kochia (Kochia scoparia); [14]", "value": 98},
      {"measurement": "Plant response rating, Kochia", "setting": "kochia (Kochia scoparia); [15]", "value": 98},
      {"measurement": "Plant response rating, Kochia", "setting": "kochia (Kochia scoparia); [16]", "value": 98},
      {"measurement": "Plant response rating, Lambsquarters", "setting": "[6]; [13]", "value": 98},
      {"measurement": "Plant response rating, Lambsquarters", "setting": "[6]; [14]", "value": 98},
      {"measurement": "Plant response rating, Lambsquarters", "setting": "[6]; [15]", "value": 100},
      {"measurement": "Plant response rating, Lambsquarters", "setting": "[6]; [16]", "value": 100},
      {"measurement": "Plant response rating, Crabgrass, Large", "setting": "[7]; [13]", "value": 75},
      {"measurement": "Plant response rating, Crabgrass, Large", "setting": "[7]; [14]", "value": 90},
      {"measurement": "Plant response rating, Crabgrass, Large", "setting": "[7]; [15]", "value": 95},
      {"measurement": "Plant response rating, Crabgrass, Large", "setting": "[7]; [16]", "value": 98},
      {"measurement": "Plant response rating, Pigweed", "setting": "[8]; [13]", "value": 95},
      {"measurement": "Plant response rating, Pigweed", "setting": "[8]; [14]", "value": 98},
      {"measurement": "Plant response rating, Pigweed", "setting": "[8]; [15]", "value": 98},
      {"measurement": "Plant response rating, Pigweed", "setting": "[8]; [16]", "value": 100},
      {"measurement": "Plant response rating, Velvetleaf", "setting": "[9]; [13]", "value": 100},
      {"measurement": "Plant response rating, Velvetleaf", "setting": "[9]; [14]", "value": 100},
      {"measurement": "Plant response rating, Velvetleaf", "setting": "[9]; [15]", "value": 100},
      {"measurement": "Plant response rating, Velvetleaf", "setting": "[9]; [16]", "value": 100},
      {"measurement": "Plant response rating, Wheat", "setting": "[10]; [13]", "value": 0},
      {"measurement": "Plant response rating, Wheat", "setting": "[10]; [14]", "value": 0},
      {"measurement": "Plant response rating, Wheat", "setting": "[10]; [15]", "value": 5},
      {"measurement": "Plant response rating, Wheat", "setting": "[10]; [16]", "value": 30},
      {"measurement": "Plant response rating, Cupgrass, Woolly", "setting": "[11]; [13]", "value": 75},
      {"measurement": "Plant response rating, Cupgrass, Woolly", "setting": "[11]; [14]", "value": 95},
      {"measurement": "Plant response rating, Cupgrass, Woolly", "setting": "[11]; [15]", "value": 95},
      {"measurement": "Plant response rating, Cupgrass, Woolly", "setting": "[11]; [16]", "value": 95},
      {"measurement": "Plant response rating, Nutsedge, Yellow", "setting": "[12]; [13]", "value": 30},
      {"measurement": "Plant response rating, Nutsedge, Yellow", "setting": "[12]; [14]", "value": 30},
      {"measurement": "Plant response rating, Nutsedge, Yellow", "setting": "[12]; [15]", "value": 65},
      {"measurement": "Plant response rating, Nutsedge, Yellow", "setting": "[12]; [16]", "value": 70}
    ]}
  ]
}
